We go through 15 molecules from article PMC8408311 (Diabetologia, 2021).

Where two headings read alike, the source gives them in different places.

Series [1] is described as follows: Insulin icodec titration trial, CGM hypoglycaemia duration, insulin-naive T2D. It is filed as in vivo, human.
Series [2] is classed as in vivo, human.
The test system of series [3] is insulin-naive patients with type 2 diabetes. Nature of the series: Icodec phase 2 titration trial, CGM post hoc. It is filed as in vivo, human. Particulars: titration B, weeks 15&16.
The subject of another series is C57BL/6 mice. In words: High-fat diet-fed mice, 8 weeks of treatment. To be noted: HFD mice, 10mg/kg for 8 weeks. It is filed as in vivo, mouse.
Series [4] is described as follows: 3-year prospective observational study of quadruple oral therapy in T2DM. It is filed as in vivo, human. Particulars: empagliflozin 25 mg/day, dapagliflozin 10 mg/day.
Series [5] can be described thus: EMPA-REG OUTCOME, uric acid and gout analysis. The class given is in vivo, human.
The test system of series [6] is patients with type 2 diabetes at CV risk. In words: PIONEER 6, treatment discontinuation. Set-up: species or system human. Particulars: in vivo.
Series [7] in a line: SURPASS-2, add-on to metformin in type 2 diabetes. The class given is in vivo, human. To be noted: TZP range over 5-15 mg; SEMA 1 mg.
In series [8] the test system is people with T2D inadequately controlled with diet and exercise. Nature of the series: SURPASS-1 trial. It is filed as in vivo, human. Particulars: across TZP doses.
Series [9] can be described thus: SURPASS-5, add-on to insulin glargine in type 2 diabetes. Particulars: range over 5, 10, 15 mg.
For the next series, the system named is C57BL/6J mice. In words: Pparg splicing in epididymal adipose tissue of LPS-injected mice. The class given is in vivo, mouse. Particulars: inflamed adipose tissue, n=6.
The nature of series [10]: VERTIS CV, analysis in older patients. It is filed as in vivo, human.
Series [11] is described as follows: Danish registry cohort, hypoglycaemic episodes leading to hospitalisation. The class given is in vivo, human.
Series [12] in a line: Swedish registry cohorts, causal random forest, change after 6 months versus SU. It is filed as in vivo, human. To be noted: after 6 months treatment.
The conditions of series [13]: single dose 50 mg.
The test system of a further series is male Wistar rats. Nature of the series: 30-min filament middle cerebral artery occlusion. The class given is in vivo, rat. Particulars: 48 h after MCAO; healthy 18 points, maximal deficit 3 points.
The next series has as its system HFD C57BL/6J mice. Nature of the series: obesity-induced cardiac dysfunction, high-fat diet mice. The class given is in vivo. To be noted: 10 mg/kg/day intragastric for 8 weeks.
The nature of series [14]: SUSTAIN 10 post hoc analysis by baseline SGLT-2i. The class given is in vivo, human.
Series [15] is described as follows: Liraglutide crossover trial, Holter monitoring and echocardiography. It is filed as in vivo, human. To be noted: 12 weeks.
Series [16] has as its system human hTERT-immortalized adipose tissue-derived MSCs. In words: PPARG splicing in adipose tissue-derived MSCs treated with recombinant cytokines. It is filed as cell-based.
Series [17] can be described thus: CADODIAME study, subclinical diabetic macular oedema. The class given is in vivo, human. To be noted: 1000 mg twice per day, 1 year; SD 14.
Series [18] is described as follows: Low dose gliclazide and sitagliptin crossover study, mixed meal test and CGM. Particulars: 2-hour MMT after 14 days. The class given is in vivo, human.
Series [19] deals with mouse pancreatic beta cells. Nature of the series: PKA activation. It is filed as cell-based. Particulars: only effective from.
A further series relates to Arrb2-/- beta cells. In words: Incretin responses in Arrb2-/- beta cells. It is filed as cell-based, mouse.
Series [20] is described as follows: EXPECT trial, pregnant women with type 1 diabetes. It is filed as in vivo, human. Particulars: degludec once daily or detemir 1-2 times daily, both with insulin aspart.

On to Insulin icodec, for which the “Overall hypoglycaemic episode duration, median (IQR)” value in series [1] (titration A (4.4-7.2 mmol/L; ±21 U/week), CGM <3.9 mmol/L for at least 15 min) is 35.0 (20.0, 70.0) min; in series [1] (titration B (4.4-7.2 mmol/L ±28 U/week)), 35.0 (20.0, 70.0) min; in [1] (titration C (3.9-6.0 mmol/L ±28 U/week)), 39.0 (24.0, 70.0) min; in [2] (with 100% loading dose), 40.0 (20.0, 75.0) min; in series [2] (without loading dose), 40.0 (25.0, 80.0) min. Further, the “patients with >70% TIR and TBR<3.9 mmol/L <4%” value in series [3] worked out at 80.0%.
Turning to `OC[C@H]1O[C@@H](c2ccc(Cl)c(Cc3ccc(O[C@H]4CCOC4)cc3)c2)[C@H](O)[C@@H](O)[C@@H]1O` [empagliflozin, Empagliflozin], in the series with C57BL/6 mice, the Body weight is recorded as 40 ± 0.9 g and the Fat mass was 8.5 ± 1.5 g. Further, in series [4], the “Change in body weight at 3 years” value is on record as -4.5 ± 2.5 kg and the “Change in fasting plasma glucose at 3 years” value is reported as -59.3 ± 53.3 mg/dL. Further, in series [5] (pooled empagliflozin), the “Hazard ratio (95% CI) for gout flare or initiation of a drug for gout vs placebo” value is reported as 0.67 (0.53, 0.85). Further, the “Patients with a gout flare or initiation of a drug for gout” value in series [5] (pooled empagliflozin, patients not on UA lowering medication at baseline) stood at 3.6%. Besides, the “Serum uric acid, adjusted mean (95% CI) treatment difference vs placebo” value in [5] (week 52, baseline UA levels ≥6 mg/dL) is given as −0.46 (−0.55, −0.38) mg/dL. Moreover, the “Serum uric acid, adjusted mean (95% CI) treatment difference vs placebo” value in [5] (week 52, pooled 10 and 25 mg/day) is recorded as −0.37 (−0.42, −0.31) mg/dL.
`CC[C@H](C)[C@H](NC(=O)[C@H](Cc1ccccc1)NC(=O)[C@H](CCC(=O)O)NC(=O)[C@H](CCCCNC(=O)COCCOCCNC(=O)COCCOCCNC(=O)CC[C@H](NC(=O)CCCCCCCCCCCCCCCCC(=O)O)C(=O)O)NC(=O)[C@H](C)NC(=O)[C@H](C)NC(=O)[C@H](CCC(N)=O)NC(=O)CNC(=O)[C@H](CCC(=O)O)NC(=O)[C@H](CC(C)C)NC(=O)[C@H](Cc1ccc(O)cc1)NC(=O)[C@H](CO)NC(=O)[C@H](CO)NC(=O)[C@@H](NC(=O)[C@H](CC(=O)O)NC(=O)[C@H](CO)NC(=O)[C@@H](NC(=O)[C@H](Cc1ccccc1)NC(=O)[C@@H](NC(=O)CNC(=O)[C@H](CCC(=O)O)NC(=O)C(C)(C)NC(=O)[C@@H](N)Cc1cnc[nH]1)[C@@H](C)O)[C@@H](C)O)C(C)C)C(=O)N[C@@H](C)C(=O)N[C@@H](Cc1c[nH]c2ccccc12)C(=O)N[C@@H](CC(C)C)C(=O)N[C@H](C(=O)N[C@@H](CCCNC(=N)N)C(=O)NCC(=O)N[C@@H](CCCNC(=N)N)C(=O)NCC(=O)O)C(C)C` [oral semaglutide, semaglutide]: the “patients who stopped at least once due to an AE” value in series [6] was 27%.
Regarding `CC[C@H](C)[C@H](NC(=O)[C@H](CC(C)C)NC(=O)[C@H](Cc1c[nH]c2ccccc12)NC(=O)[C@H](CCC(N)=O)NC(=O)[C@@H](NC(=O)[C@H](Cc1ccccc1)NC(=O)[C@H](C)NC(=O)[C@H](CCCCNC(=O)COCCOCCNC(=O)COCCOCCNC(=O)CC[C@H](NC(=O)CCCCCCCCCCCCCCCCCCC(=O)O)C(=O)O)NC(=O)[C@H](CCC(N)=O)NC(=O)[C@H](C)NC(=O)[C@@H](NC(=O)[C@H](CCCCN)NC(=O)[C@H](CC(=O)O)NC(=O)[C@H](CC(C)C)NC(=O)C(C)(C)NC(=O)[C@@H](NC(=O)[C@H](CO)NC(=O)[C@H](Cc1ccc(O)cc1)NC(=O)[C@H](CC(=O)O)NC(=O)[C@H](CO)NC(=O)[C@@H](NC(=O)[C@H](Cc1ccccc1)NC(=O)[C@@H](NC(=O)CNC(=O)[C@H](CCC(=O)O)NC(=O)C(C)(C)NC(=O)[C@@H](N)Cc1ccc(O)cc1)[C@@H](C)O)[C@@H](C)O)[C@@H](C)CC)[C@@H](C)CC)C(C)C)C(=O)N[C@@H](C)C(=O)NCC(=O)NCC(=O)N1CCC[C@H]1C(=O)N[C@@H](CO)C(=O)N[C@@H](CO)C(=O)NCC(=O)N[C@@H](C)C(=O)N1CCC[C@H]1C(=O)N1CCC[C@H]1C(=O)N1CCC[C@H]1C(=O)N[C@@H](CO)C(N)=O` [TZP, Tirzepatide], in [7], the Diarrhoea is reported as 13-16%, the Nausea is on record as 17-22% and the Vomiting is 6-10%. For the same molecule, in series [8], the Diarrhoea is recorded as 12-14% and the Nausea was 12-18%. In [9], the “Diarrhoea, patients reporting” value is on record as 12-21%; the “Incidence of hypoglycaemia (blood glucose <3.0 mmol/L) or severe hypoglycaemia” value is 14-19%; the “Nausea, patients reporting” value was 13-18%; the “Vomiting, patients reporting” value was 7-13%.
For lipopolysaccharides [LPS], the “Increase of PpargΔ5/cPparg ratio” value in the series on C57BL/6J mice is listed as 3.5 fold.
As for `CCOc1ccc(Cc2cc([C@]34OC[C@](CO)(O3)[C@@H](O)[C@H](O)[C@H]4O)ccc2Cl)cc1` [ertugliflozin], the “Incidence of hypovolemia AEs” value in series [10] (patients ≥65 yrs) is listed as 5.3%; in series [10] (patients ≥75 yrs), 6.9%.
With human insulin, the figures for the “HR for hypoglycaemic episodes leading to hospitalisation” value in [11] (combination human insulin) and in series [11] (intermediate-acting human insulin) were 1.84 and 1.38, respectively.
With `CCOc1ccc(Cc2cc([C@@H]3O[C@H](CO)[C@@H](O)[C@H](O)[C@H]3O)ccc2Cl)cc1` [dapagliflozin], in [4], the “Change in body weight at 3 years” value is on record as -1.0 ± 3.3 kg and the “Change in fasting plasma glucose at 3 years” value is given as -47.4 ± 61.7 mg/dL. The “Average treatment effect on change in HbA1c compared to SU” value in [12] was -1.10 [-1.92, -0.27] mmol/mol. Besides, the “Absolute risk reduction for the primary outcome” value (UACR >3500 mg/g, 95%CI 3.0, 24.5) came to 13.8%. In addition, under “UACR >1000 to ≤3500 mg/g, 95%CI 3.6, 10.1”, the “Absolute risk reduction for the primary outcome” value amounted to 6.9%. Further, in [13], the adverse events entry was “no adverse events”.
`OC[C@H]1O[C@@H](c2ccc(Cl)c(Cc3ccc(O[C@H]4CCOC4)cc3)c2)[C@H](O)[C@@H](O)[C@@H]1O` [EMPA, empagliflozin]: in the series with male Wistar rats, the “Garcia score (neurological deficit)” value is 12.0 (9.5; 14.0) points. In the series on HFD C57BL/6J mice, the “body weight and whole-body fat” value is recorded as “Lower”; the myocardial damage entry is recorded as “reduced”.
Regarding `CCCCCCCCCCCCCCCC(=O)N[C@@H](CCC(=O)NCCCC[C@H](NC(=O)[C@H](C)NC(=O)[C@H](C)NC(=O)[C@H](CCC(N)=O)NC(=O)CNC(=O)[C@H](CCC(=O)O)NC(=O)[C@H](CC(C)C)NC(=O)[C@H](Cc1ccc(O)cc1)NC(=O)[C@H](CO)NC(=O)[C@H](CO)NC(=O)[C@@H](NC(=O)[C@H](CC(=O)O)NC(=O)[C@H](CO)NC(=O)[C@@H](NC(=O)[C@H](Cc1ccccc1)NC(=O)[C@@H](NC(=O)CNC(=O)[C@H](CCC(=O)O)NC(=O)[C@H](C)NC(=O)[C@@H](N)Cc1cnc[nH]1)[C@@H](C)O)[C@@H](C)O)C(C)C)C(=O)N[C@@H](CCC(=O)O)C(=O)N[C@@H](Cc1ccccc1)C(=O)N[C@H](C(=O)N[C@@H](C)C(=O)N[C@@H](Cc1c[nH]c2ccccc12)C(=O)N[C@@H](CC(C)C)C(=O)N[C@H](C(=O)N[C@@H](CCCNC(=N)N)C(=O)NCC(=O)N[C@@H](CCCNC(=N)N)C(=O)NCC(=O)O)C(C)C)[C@@H](C)CC)C(=O)O` [liraglutide], the “Premature treatment discontinuations due to AEs” value in series [14] (with SGLT-2i) is listed as 7.2%; in series [14] (without SGLT-2i) it was 6.4%. Besides, in series [15], the “Impairment of diastolic filling (e')” value was 10%.
For TNFα, the “Increase of PpargΔ5/cPparg ratio” value in [16] was 2.5 fold.
Consider `O=S(=O)(O)c1cc(O)ccc1O` [CaD, Calcium dobesilate], for which the “Mean decrease of retinal thickness” value in [17] is on record as 2.5 μm.
With `N[C@@H](CC(=O)N1CCn2c(nnc2C(F)(F)F)C1)Cc1cc(F)c(F)cc1F` [DPP4, sitagliptin], the “Beta cell glucose sensitivity” value in series [18] is recorded as 75.9 (55.7 - 96.0) pmol min^-1 m^-2mM^-1.
Turning to “glucose-dependent insulinotropic polypeptide (YAEGTFISDYSIAMDKIHQQDFVNWLLAQKGKKNDWKHNITQ; Gastric inhibitory polypeptide; UniProt P09681 52-93, looked up) [GIP]”, the “Lowest effective concentration on PKA activation and insulin secretion” value in series [19] is on record as not below 1 nM. Besides, the “Reduction of insulin secretion in Arrb2-/- beta cells” value in the series with Arrb2-/- beta cells was ~ 50%.
Consider insulin detemir, for which the “Estimated mean HbA1c prior to delivery” value in [20] is 6.34%.
